Our source for the IC50 values is BindingDB's records for doi:10.1016/j.bmcl.2003.07.008 (University of Lille, 2003).

This assay can be described thus: Inhibition of 1-monooleoyl glycerol (MOG) induced beta-hematin formation.
The term IC50 denotes the concentration at which inhibition is half-maximal. In the case of `CC(C)CN(CCCN1CCN(CCCNc2ccnc3cc(Cl)ccc23)CC1)CC(C)C` [7-chloro-N-(3-(4-(3-(diisobutylamino)propyl)piperazin-1-yl)propyl)quinolin-4-amine], half-maximal inhibition (IC50) required 43.4 µM. Regarding `CC(C)CN(CCCN1CCN(CCCNCc2ccncc2)CC1)CC(C)C` [Diisobutyl-[3-(4-{3-[(pyridin-4-ylmethyl)-amino]-propyl}-piperazin-1-yl)-propyl]-amine], the IC50 was > 200 µM.

Regarding `CC(C)CN(CCCN1CCN(CCCNc2cnccn2)CC1)CC(C)C` [{3-[4-(3-Diisobutylamino-propyl)-piperazin-1-yl]-propyl}-pyrazin-2-yl-amine], the IC50 is > 200 µM. For the compound `CC(C)CN(CCCN1CCN(CCCNc2nc3ccccc3o2)CC1)CC(C)C` [Benzooxazol-2-yl-{3-[4-(3-diisobutylamino-propyl)-piperazin-1-yl]-propyl}-amine], the half-maximal inhibitory concentration (IC50) is > 200 µM.

For `CC(C)CN(CCCN1CCN(CCCNc2nc3ccccc3[nH]2)CC1)CC(C)C` [(1H-Benzoimidazol-2-yl)-{3-[4-(3-diisobutylamino-propyl)-piperazin-1-yl]-propyl}-amine], 63.6 µM corresponded to half-maximal inhibition (IC50). The value for `CC(C)CN(CCCN1CCN(CCCNc2ccnc3ccccc23)CC1)CC(C)C` [{3-[4-(3-Diisobutylamino-propyl)-piperazin-1-yl]-propyl}-quinolin-4-yl-amine] was 62.3 µM.
